One molecule from ChEMBL document CHEMBL3526092 (Drug Metab Dispos, 2012) can be followed below.

The target of series [1] is T1, CYP3A (Homo sapiens, UniProt P08684+P20815+P24462+Q9HB55). Nature of the series: Competitive inhibition of CYP3A in human liver microsomes. The class given is ADME. A general note: Liver microsomes are a subcellular fraction often used to study metabolism.
Series [2] concerns the target T2, Cytochrome P450 3A5 (Homo sapiens, UniProt P20815). Kind of series: Inhibition of human CYP3A5 expressed in supersomes assessed inhibition of 1'-OH midazolam formation preincubated with compound before substrate addition by LC-MS method. The class given is ADME.
Series [3] addresses T3, CYP3A5 (Homo sapiens, UniProt P20815). Nature of the series: Inhibition of human CYP3A5 expressed in supersomes assessed inhibition of 1'-OH midazolam formation preincubated with compound for 2.5 to 30 mins followed by addition of 20-fold diluted buffer with 20 uM MDZ by LC-MS method. The class given is ADME. The note with it: supersomes expressing human CYP3A5, probe midazolam (20 uM; 1'-OH midazolam formation).

The target of series [4] is T1, CYP3A. Kind of series: Reversible competitive inhibition of CYP3A-mediated 1'-OH midazolam formation in human liver microsomes after 7.5 mins by nonlinear regression study. The class given is ADME. The note with it: probe midazolam (1'-OH midazolam formation).
Series [5] concerns the target T4, Cytochrome P450 3A4 (Homo sapiens, UniProt P08684). Nature of the series: Inhibition of human CYP3A4 expressed in supersomes assessed inhibition of 1'-OH midazolam formation preincubated with compound before substrate addition by LC-MS method. The class given is ADME.
Series [6] deals with T1, CYP3A. Nature of the series: Inhibition of CYP3A-mediated 1'-OH midazolam formation in human liver microsomes after 7.5 mins by LC-MS method. The settings on record: probe midazolam (1'-OH midazolam formation). The class given is ADME.
Series [7] addresses T4, Cytochrome P450 3A4. Nature of the series: Reversible competitive inhibition of human CYP3A4-mediated 1'-OH midazolam formation in human liver microsomes after 7.5 mins by nonlinear regression study. The class given is ADME.
For series [8], the target named is T1, CYP3A. Kind of series: Inhibition of CYP3A-mediated 1'-OH midazolam formation in human liver microsomes preincubated for 15 mins before substrate addition by LC-MS method. The class given is ADME. The settings on record: probe midazolam (1'-OH midazolam formation).
Series [9] has as its target T5, CYP3A4 (Homo sapiens, UniProt P08684). Nature of the series: Inhibition of human CYP3A4 expressed in supersomes assessed inhibition of 1'-OH midazolam formation preincubated with compound for 2.5 to 30 mins followed by addition of 20-fold diluted buffer with 20 uM MDZ by LC-MS method. The class given is ADME. The note with it: supersomes expressing human CYP3A4, probe midazolam (20 uM; 1'-OH midazolam formation).

The target of series [10] is T5, CYP3A4. Nature of the series: Inhibition of human CYP3A4 expressed in supersomes assessed inhibition of 1'-OH midazolam formation preincubated at 2 uM followed by addition of 20-fold diluted buffer with 20 uM MDZ by LC-MS method in presence of NADPH. The note with it: supersomes expressing human CYP3A4, probe midazolam (20 uM; 1'-OH midazolam formation). The class given is ADME.

The target of series [11] is T2, Cytochrome P450 3A5. Kind of series: Reversible competitive inhibition of human CYP3A5-mediated 1'-OH midazolam formation in human liver microsomes after 7.5 mins by nonlinear regression study. The class given is ADME.
In series [12] the target is T5, CYP3A4. Kind of series: Ratio of IC50 for human CYP3A4 expressed in supersomes by coincubation study to IC50 for human CYP3A4 expressed in supersomes by preincubation study. The note with it: supersomes expressing human CYP3A4, read-out: Ratio IC50.
Series [13] deals with T4, Cytochrome P450 3A4. Nature of the series: Inhibition of human CYP3A4 expressed in supersomes assessed inhibition of 1'-OH midazolam formation by LC-MS method. The class given is ADME.
Series [14] addresses T2, Cytochrome P450 3A5. Nature of the series: Inhibition of human CYP3A5 expressed in supersomes assessed inhibition of 1'-OH midazolam formation by LC-MS method. The class given is ADME.
Series [15] has as its target T3, CYP3A5. Nature of the series: Ratio of IC50 for human CYP3A5 expressed in supersomes by coincubation study to IC50 for human CYP3A5 expressed in supersomes by preincubation study. The settings on record: supersomes expressing human CYP3A5, read-out: Ratio IC50.
In series [16] the target is T3, CYP3A5. Nature of the series: Inhibition of human CYP3A5 expressed in supersomes assessed inhibition of 1'-OH midazolam formation preincubated at 2 uM followed by addition of 20-fold diluted buffer with 20 uM MDZ by LC-MS method in presence of NADPH. The class given is ADME. The note with it: supersomes expressing human CYP3A5, probe midazolam (20 uM; 1'-OH midazolam formation).

Where [17] appears, read: human, recombinant enzyme, TDE = time-dependent effect.

T4 sequence (P08684 whole entry): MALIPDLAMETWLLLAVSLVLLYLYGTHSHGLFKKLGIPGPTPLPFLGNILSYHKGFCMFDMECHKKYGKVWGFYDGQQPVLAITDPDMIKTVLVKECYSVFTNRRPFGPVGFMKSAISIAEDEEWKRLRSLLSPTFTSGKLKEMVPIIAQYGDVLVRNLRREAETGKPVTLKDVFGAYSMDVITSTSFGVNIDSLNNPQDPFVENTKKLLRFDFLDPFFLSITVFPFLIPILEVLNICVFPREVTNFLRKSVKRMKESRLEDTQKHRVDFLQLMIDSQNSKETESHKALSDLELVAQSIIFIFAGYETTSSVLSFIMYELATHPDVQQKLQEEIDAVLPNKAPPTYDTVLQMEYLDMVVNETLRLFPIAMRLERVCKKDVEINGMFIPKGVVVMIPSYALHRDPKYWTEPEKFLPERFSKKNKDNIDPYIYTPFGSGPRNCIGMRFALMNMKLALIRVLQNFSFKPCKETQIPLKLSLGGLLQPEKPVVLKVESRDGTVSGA
T5 sequence (P08684 whole entry): as above
T3 sequence (P20815 whole entry): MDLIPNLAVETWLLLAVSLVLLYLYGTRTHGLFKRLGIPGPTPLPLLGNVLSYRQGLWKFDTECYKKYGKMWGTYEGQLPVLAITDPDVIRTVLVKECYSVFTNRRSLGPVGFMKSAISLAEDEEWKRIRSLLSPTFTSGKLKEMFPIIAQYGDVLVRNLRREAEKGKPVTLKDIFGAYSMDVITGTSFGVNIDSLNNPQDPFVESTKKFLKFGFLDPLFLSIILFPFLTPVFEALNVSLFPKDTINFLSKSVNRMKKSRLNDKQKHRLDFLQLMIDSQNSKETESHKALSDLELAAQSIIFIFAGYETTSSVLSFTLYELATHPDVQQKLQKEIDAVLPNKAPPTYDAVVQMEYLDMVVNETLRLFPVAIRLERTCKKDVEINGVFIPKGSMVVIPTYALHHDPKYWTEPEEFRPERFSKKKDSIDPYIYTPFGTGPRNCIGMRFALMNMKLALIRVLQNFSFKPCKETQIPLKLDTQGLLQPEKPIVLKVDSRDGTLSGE
T2 sequence (P20815 whole entry): as above

As to `C=CC[C@@H]1/C=C(\C)C[C@H](C)C[C@H](OC)[C@H]2O[C@@](O)(C(=O)C(=O)N3CCCC[C@H]3C(=O)O[C@H](/C(C)=C/[C@@H]3CC[C@@H](O)[C@H](OC)C3)[C@H](C)[C@@H](O)CC1=O)[C@H](C)C[C@@H]2OC` [TACROLIMUS ANHYDROUS], the Ki on CYP3A [1] is 0.36 µM; at Cytochrome P450 3A4 [7] it was 2.66 µM; on Cytochrome P450 3A5 [11], 2.69 µM. Besides, the IC50 at Cytochrome P450 3A5 [2] is 0.14 µM; at Cytochrome P450 3A4 [5] it was 0.12 µM; against CYP3A [8], 0.74 µM; against Cytochrome P450 3A4 [13], 0.62 µM; on Cytochrome P450 3A5 [14], 0.63 µM. Also, the “inhibition (INH)” value on Cytochrome P450 3A5 [2] (setting [17]), at Cytochrome P450 3A4 [5] (setting [17]), at Cytochrome P450 3A4 [13] (setting [17]) and on Cytochrome P450 3A5 [14] (setting [17]) was “tde” each time. For the same molecule, the kinact on CYP3A5 [3] is 0.0035 s⁻¹; on CYP3A4 [9], 0.005 s⁻¹. For the same molecule, the Ki at 7.5 min at CYP3A [4] worked out at 0.61 µM. In addition, on CYP3A [6], the IC50 at 7.5 min turned out to be 0.94 µM. For the same molecule, the inhibition at 2 µM at CYP3A4 [10] came to 42%; at CYP3A5 [16] it was 52%. In addition, the IC50 shift at CYP3A4 [12] and on CYP3A5 [15] was 5 throughout.

By Ki is commonly meant the equilibrium dissociation constant of an inhibitor or competing ligand from its target. Low readings indicate higher affinity, high ones lower affinity. Usually IC50 stands for the midpoint of a concentration-inhibition curve. In general, kinact refers to the maximal first-order rate at which the target is inactivated. As usually defined, the inhibition is the relative decrease from the control value, in per cent.
